Literature values, collected in patent US6645524B2, “Oral pharmaceutical dosage forms for pulsatile delivery of an antiarrhythmic agent” (Pierce Management LLC, priority 2000, dated 2003).
Like-named read-outs stand apart in the source and are kept apart here.

Legend:
[1] = test system: high-risk post-myocardial infarction patients; conditions: 3,121 patients with left ventricular ejection fraction of 40% or below, versus placebo
[2] = more than 99% enantiomerically pure, given in tablets
[3] = test system: patients with symptomatic primary paroxymal atrial fibrillation/atrial flutter; conditions: for median time to recurrence of symptomatic ECG-documented atrial fibrillation/atrial flutter: twice a day
[4] = test system: patients with chronic atrial fibrillation/atrial flutter; conditions: titrated 80 mg/day to 320 mg/day after cardioversion; placebo 44 days
QT interval = conditions: 6 days of 80 mg twice or three times daily, 10 patients
[5] = test system: patients with histories of sustained ventricular tachyarrhythmias; conditions: versus imipramine, mexiletine, pirmenol, procainamide, propafenone and quinidine, 496 patients

CC(C)NC[C@@H](O)c1ccc(NS(C)(=O)=O)cc1 [d-sotalol]
mortality [1]: increased mortality compared with placebo
effect on heart rate and blood pressure [2]: decreased resting and exercise heart rate without altering blood pressure

CC(C)NCC(O)c1ccc(NS(C)(=O)=O)cc1 (racemic) [sotalol]
absorption (given with food): approximately 80%
apparent volume of distribution (human, in vivo): two
eliminated by renal excretion as unchanged sotalol (human, in vivo): 80-90%
protein binding (human, in vivo): negligible
bioavailability (no significant presystemic metabolism): completely bioavailable
absorption (oral ingestion on an empty stomach): completely absorbed
patients discontinued because of adverse events ([3]; 80 mg dose level): 12%
median time to recurrence of symptomatic ECG-documented atrial fibrillation/atrial flutter ([3]; 80 mg dose level): 106 days
patients discontinued because of adverse events ([3]; 120 mg dose level): 18%
median time to recurrence of symptomatic ECG-documented atrial fibrillation/atrial flutter ([3]; 120 mg dose level): 229 days
patients discontinued because of adverse events ([3]; 160 mg dose level): 29%
median time to recurrence of symptomatic ECG-documented atrial fibrillation/atrial flutter ([3]; 160 mg dose level): 175 days
median time to recurrence of ECG-documented atrial fibrillation [4]: more than 180 days
partial loss of repolarization effect (pharmacodynamic tolerance) (QT interval): four out of the ten patients
preventing death from arrhythmias or any other cardiac cause [5]: more effective than the other agents
